Laboratory results as given in ChEMBL document CHEMBL4028852, “Design of a Chemical Probe for the Bromodomain and Plant Homeodomain Finger-Containing (BRPF) Family of Proteins” (J Med Chem, 2017).

Experiments:
[1] = target: T1, Bromodomain and PHD finger-containing protein 3 (Homo sapiens, UniProt Q9ULD4); assay: Inhibition of human BRPF3 (588 to 701 residues) expressed in Escherichia coli BL21 after 1 hr by BROMOscan assay
T1 sequence (Q9ULD4 whole entry): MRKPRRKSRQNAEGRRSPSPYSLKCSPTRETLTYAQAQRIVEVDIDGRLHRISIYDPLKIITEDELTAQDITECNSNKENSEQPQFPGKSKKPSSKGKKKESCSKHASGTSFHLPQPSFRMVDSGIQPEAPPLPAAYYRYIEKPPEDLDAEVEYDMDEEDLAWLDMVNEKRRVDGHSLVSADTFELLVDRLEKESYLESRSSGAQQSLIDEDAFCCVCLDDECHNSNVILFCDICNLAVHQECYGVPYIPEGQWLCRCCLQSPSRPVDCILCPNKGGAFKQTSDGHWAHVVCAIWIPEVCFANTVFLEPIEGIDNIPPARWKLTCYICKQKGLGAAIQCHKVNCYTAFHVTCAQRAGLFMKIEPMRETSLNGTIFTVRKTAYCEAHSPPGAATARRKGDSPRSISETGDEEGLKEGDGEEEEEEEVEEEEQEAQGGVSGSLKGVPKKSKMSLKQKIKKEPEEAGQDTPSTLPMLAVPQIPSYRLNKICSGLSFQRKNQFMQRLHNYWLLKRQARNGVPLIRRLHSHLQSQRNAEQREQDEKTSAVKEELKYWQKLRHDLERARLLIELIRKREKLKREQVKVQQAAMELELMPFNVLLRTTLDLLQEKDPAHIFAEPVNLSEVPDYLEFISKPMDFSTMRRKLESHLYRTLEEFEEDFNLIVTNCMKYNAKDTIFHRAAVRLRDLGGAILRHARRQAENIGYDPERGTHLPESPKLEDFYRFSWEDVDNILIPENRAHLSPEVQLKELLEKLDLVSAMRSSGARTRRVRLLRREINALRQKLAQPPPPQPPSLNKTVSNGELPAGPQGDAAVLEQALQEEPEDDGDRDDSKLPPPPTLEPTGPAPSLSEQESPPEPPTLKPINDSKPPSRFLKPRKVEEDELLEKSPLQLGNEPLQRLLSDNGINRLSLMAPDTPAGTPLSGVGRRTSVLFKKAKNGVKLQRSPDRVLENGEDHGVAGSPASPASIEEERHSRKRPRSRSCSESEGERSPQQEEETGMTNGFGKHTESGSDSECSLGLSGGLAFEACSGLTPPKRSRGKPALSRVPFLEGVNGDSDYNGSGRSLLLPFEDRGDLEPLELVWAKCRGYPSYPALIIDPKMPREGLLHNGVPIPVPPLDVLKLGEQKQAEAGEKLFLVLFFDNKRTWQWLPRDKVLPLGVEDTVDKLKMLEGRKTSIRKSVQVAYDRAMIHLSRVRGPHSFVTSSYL

Peregrin = target: T2, Peregrin (Homo sapiens, UniProt P55201); assay: Inhibition of His-tagged BRPF1 (unknown origin) after 30 mins by alphaScreen assay
T2 sequence (P55201 whole entry): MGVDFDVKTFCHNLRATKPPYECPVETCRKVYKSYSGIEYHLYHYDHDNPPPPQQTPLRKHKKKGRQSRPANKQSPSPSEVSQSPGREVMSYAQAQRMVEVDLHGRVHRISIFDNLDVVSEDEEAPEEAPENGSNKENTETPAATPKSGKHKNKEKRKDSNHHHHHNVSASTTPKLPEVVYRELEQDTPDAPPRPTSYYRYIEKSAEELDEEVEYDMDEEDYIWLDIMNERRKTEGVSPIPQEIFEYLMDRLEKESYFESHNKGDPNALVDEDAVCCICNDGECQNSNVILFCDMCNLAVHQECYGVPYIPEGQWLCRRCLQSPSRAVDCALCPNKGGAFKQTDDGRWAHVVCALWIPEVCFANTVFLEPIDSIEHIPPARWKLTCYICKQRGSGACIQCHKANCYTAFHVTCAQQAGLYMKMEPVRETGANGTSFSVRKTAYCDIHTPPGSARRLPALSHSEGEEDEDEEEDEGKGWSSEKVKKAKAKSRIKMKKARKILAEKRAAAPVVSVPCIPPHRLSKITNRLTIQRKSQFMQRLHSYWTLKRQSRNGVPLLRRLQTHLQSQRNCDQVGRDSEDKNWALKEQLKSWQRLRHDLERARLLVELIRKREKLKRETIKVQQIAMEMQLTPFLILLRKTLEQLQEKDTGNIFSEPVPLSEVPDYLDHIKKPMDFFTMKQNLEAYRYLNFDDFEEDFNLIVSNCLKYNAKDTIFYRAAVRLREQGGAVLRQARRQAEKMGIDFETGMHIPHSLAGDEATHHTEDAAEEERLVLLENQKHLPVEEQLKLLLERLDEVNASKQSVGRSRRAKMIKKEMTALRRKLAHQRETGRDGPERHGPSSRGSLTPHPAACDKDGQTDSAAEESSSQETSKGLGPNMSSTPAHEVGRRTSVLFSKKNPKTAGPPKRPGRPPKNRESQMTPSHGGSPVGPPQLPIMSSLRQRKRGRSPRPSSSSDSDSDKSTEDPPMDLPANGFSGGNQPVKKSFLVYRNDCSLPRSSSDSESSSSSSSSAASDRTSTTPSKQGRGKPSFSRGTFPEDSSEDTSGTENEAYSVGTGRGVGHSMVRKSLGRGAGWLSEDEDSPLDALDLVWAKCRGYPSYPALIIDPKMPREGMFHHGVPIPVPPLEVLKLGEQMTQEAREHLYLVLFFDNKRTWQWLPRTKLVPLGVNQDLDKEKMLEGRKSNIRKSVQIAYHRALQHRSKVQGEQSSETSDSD

[2] = target: Bromodomain-containing protein 4 (Homo sapiens, UniProt O60885); assay: Inhibition of human BRD4 bromodomain 1 (unknown origin) using [H-YSGRGKacGGKacGLGKacGGAKacRHRK(Biotin)-OH peptide as substrate after 30 mins by alphaScreen assay
Liver = assay: Metabolic stability in mouse liver microsomes by UPLC-MS/MS analysis; assay type: ADME, microsome
[3] = Inhibition of cell proliferation of human NCI60 cells at 10 uM after 48 hrs by SRB assay; assay type: functional; conditions: NCI60, 48 h
[4] = Elimination half life in CD1 mouse at 1 mg/kg, iv by UPLC-MS/MS analysis; assay type: ADME, organism-based; conditions: in vivo, read-out: beta t1/2 (converted)
hERG = hERG (Homo sapiens, UniProt Q12809); assay: Inhibition of human ERG at 30 uM
hERG, sequence (Q12809 whole entry): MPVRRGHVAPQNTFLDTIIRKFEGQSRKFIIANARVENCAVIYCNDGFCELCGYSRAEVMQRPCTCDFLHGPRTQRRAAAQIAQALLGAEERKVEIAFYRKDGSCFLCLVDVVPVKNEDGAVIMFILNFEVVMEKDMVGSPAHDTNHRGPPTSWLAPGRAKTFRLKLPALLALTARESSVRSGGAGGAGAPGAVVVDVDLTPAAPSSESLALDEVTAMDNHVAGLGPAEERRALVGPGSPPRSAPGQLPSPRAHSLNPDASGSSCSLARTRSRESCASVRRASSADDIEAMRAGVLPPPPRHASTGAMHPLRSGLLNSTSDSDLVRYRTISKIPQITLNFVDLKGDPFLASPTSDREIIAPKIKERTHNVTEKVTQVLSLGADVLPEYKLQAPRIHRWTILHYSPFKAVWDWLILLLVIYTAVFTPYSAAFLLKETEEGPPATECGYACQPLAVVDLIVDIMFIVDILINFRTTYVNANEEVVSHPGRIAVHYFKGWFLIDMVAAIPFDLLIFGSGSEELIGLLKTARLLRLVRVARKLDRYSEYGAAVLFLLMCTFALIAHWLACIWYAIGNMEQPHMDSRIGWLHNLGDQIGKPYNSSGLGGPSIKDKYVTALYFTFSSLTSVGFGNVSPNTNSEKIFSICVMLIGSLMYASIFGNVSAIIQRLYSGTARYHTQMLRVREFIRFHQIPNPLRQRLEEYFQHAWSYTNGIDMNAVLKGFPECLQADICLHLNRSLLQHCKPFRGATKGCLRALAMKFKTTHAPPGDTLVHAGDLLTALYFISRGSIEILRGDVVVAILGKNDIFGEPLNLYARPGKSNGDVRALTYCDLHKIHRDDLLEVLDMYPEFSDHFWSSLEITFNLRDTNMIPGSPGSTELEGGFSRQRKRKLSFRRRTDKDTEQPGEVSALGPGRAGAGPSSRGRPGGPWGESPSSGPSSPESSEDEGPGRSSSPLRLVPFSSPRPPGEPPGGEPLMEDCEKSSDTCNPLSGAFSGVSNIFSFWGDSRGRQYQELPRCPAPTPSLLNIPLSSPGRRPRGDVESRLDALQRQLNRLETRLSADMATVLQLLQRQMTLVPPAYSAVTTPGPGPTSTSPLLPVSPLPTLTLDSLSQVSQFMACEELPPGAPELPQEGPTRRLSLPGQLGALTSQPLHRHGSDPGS

| IC50 [1] | Structure (SMILES) | IC50 (Peregrin) | IC50 [2] | Stability (Liver) | inhibition at 10 µM [3] | half-life [4] | inhibition at 30 µM (hERG) |
| --- | --- | --- | --- | --- | --- | --- | --- |
| > 100 µM | Cn1c(=O)ccc2cc(S(=O)(=O)Nc3ccccc3)ccc21 |  |  |  |  |  |  |
| 4.6 µM | COc1cc(C#N)ccc1S(=O)(=O)Nc1ccc2c(c1)cc(C(C)C)c(=O)n2C |  |  |  |  |  |  |
|  | COc1cc(C#N)ccc1S(=O)(=O)Nc1ccc2c(c1)cc(C)c(=O)n2C | 0.114 µM | > 10 µM | Stable | < 25% | 1.2 h | < 40% |
